According to US9850245B2 (Merck Sharp & Dohme Corp., priority 2014, dated 2017):
Counter-ions that a name gives are not always drawn.

What follows are molecules tested against ROMK (Homo sapiens (Human), UniProt P48048) (assay: Thallium Flux Assay).
Type: cell-based
Procedure: A Thallium Flux Assay was performed on the compounds of the Examples. This assay has been described previously; see, e.g., PCT Published Application WO 2013/062900.

Chain of ROMK (P48048 whole entry): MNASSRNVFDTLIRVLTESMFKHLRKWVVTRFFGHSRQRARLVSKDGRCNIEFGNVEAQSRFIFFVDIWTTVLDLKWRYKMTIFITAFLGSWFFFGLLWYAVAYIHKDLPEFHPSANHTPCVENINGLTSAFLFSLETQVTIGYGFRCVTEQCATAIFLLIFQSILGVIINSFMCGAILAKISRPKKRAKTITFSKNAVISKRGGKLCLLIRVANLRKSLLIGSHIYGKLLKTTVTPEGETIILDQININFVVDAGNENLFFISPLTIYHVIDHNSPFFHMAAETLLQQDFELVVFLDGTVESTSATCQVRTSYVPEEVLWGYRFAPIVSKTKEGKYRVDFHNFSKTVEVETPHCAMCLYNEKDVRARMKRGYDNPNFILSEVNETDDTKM

Structure (SMILES) | IC50
CC1=C(N2CCOC3(CC4CCC(C3)N4C[C@H](O)c3ccc4c(c3C)COC4=O)C2=O)COC1=O (stereo partly drawn) [Example 42, (1R,2′R,5S)-8-((R)-2-hydroxy-2-(4-methyl-1-oxo-1,3-dihydroisobenzofuran-5-yl)ethyl)-4′-(4-methyl-5-oxo-2,5-dihydrofuran-3-yl)-8-azaspiro[bicyclo[3.2.1]octane-3,2′-morpholin]-3′-one] | 87.4 nM
CC1=C(N2CCNC3(CCN(C[C@H](O)c4ccc5c(c4C)COC5=O)CC3)C2=O)COC1=O [Example 1, 9-[(2R)-2-hydroxy-2-(4-methyl-1-oxo-1,3-dihydro-2-benzofuran-5-yl)ethyl]-4-(4-methyl-5-oxo-2,5-dihydrofuran-3-yl)-1,4,9-triazaspiro[5.5]undecan-5-one dihydrochloride] | 68.7 nM
CC1=C(N2CCOC3(CCN(C[C@H](F)c4ccc(-n5cnnn5)nc4)CC3)C2=O)COC1=O [Example 55, (R)-9-(2-(6-(1H-tetrazol-1-yl)pyridin-3-yl)-2-fluoroethyl)-4-(4-methyl-5-oxo-2,5-dihydrofuran-3-yl)-1-oxa-4,9-diazaspiro[5.5]undecan-5-one] | 59 nM
CC1=C(N2CCOC3(CCN(CC(O)c4cnc(-n5cnnn5)nc4)CC3)C2=O)COC1=O (single isomer, unassigned) [Example 46B, 9-(2-(2-(1H-tetrazol-1-yl)pyrimidin-5-yl)-2-hydroxyethyl)-4-(4-methyl-5-oxo-2,5-dihydrofuran-3-yl)-1-oxa-4,9-diazaspiro[5.5]undecan-5-one] | 58.1 nM
CC1=C(N2CCOC3(CCN(CCc4cnc(-n5cnnn5)cn4)CC3)C2=O)COC1=O [Example 52, 9-(2-(5-(1H-tetrazol-1-yl)pyrazin-2-yl)ethyl)-4-(4-methyl-5-oxo-2,5-dihydrofuran-3-yl)-1-oxa-4,9-diazaspiro[5.5]undecan-5-one] | 39.3 nM
O=C1C=C(N2CCOC3(CC4CCC(C3)N4CCc3ccc(-n4cnnn4)nn3)C2=O)CO1 [Example 54, (1R,2′r,5S)-8-(2-(6-(1H-tetrazol-1-yl)pyridazin-3-yl)ethyl)-4′-(5-oxo-2,5-dihydrofuran-3-yl)-8-azaspiro[bicyclo[3.2.1]octane-3,2′-morpholin]-3′-one] | 3.76 nM
CC1=C(N2CC3(CCN(CC(O)c4ccc(-n5cnnn5)nc4C)CC3)OCC2=O)COC1=O (single isomer, unassigned) [Example 60, 9-(2-hydroxy-2-(2-methyl-6-(1H-tetrazol-1-yl)pyridin-3-yl)ethyl)-4-(4-methyl-5-oxo-2,5-dihydrofuran-3-yl)-1-oxa-4,9-diazaspiro[5.5]undecan-3-one] | 48.4 nM
CC1=C(N2CCOC3(CCN(C[C@H](F)c4ccc5c(c4C)COC5=O)CC3)C2=O)COC1=O [Example 57, (R)-9-(2-fluoro-2-(4-methyl-1-oxo-1,3-dihydroisobenzofuran-5-yl)ethyl)-4-(4-methyl-5-oxo-2,5-dihydrofuran-3-yl)-1-oxa-4,9-diazaspiro[5.5]undecan-5-one] | 218 nM
Cc1c([C@@H](O)CN2CCC3(CC2)OCC(C)N(C2=CC(=O)OC2)C3=O)ccc2c1COC2=O (single isomer, unassigned) [Example 14] | 264 nM
CC1=C(N2CCOC3(CCN(C[C@@H](F)c4ccc5c(c4C)COC5=O)CC3)C2=O)COC1=O [Example 58, (S)-9-(2-fluoro-2-(4-methyl-1-oxo-1,3-dihydroisobenzofuran-5-yl)ethyl)-4-(4-methyl-5-oxo-2,5-dihydrofuran-3-yl)-1-oxa-4,9-diazaspiro[5.5]undecan-5-one] | 306 nM
CC1=C(N2CCOC3(CCN(CCc4ccc(-n5cnnn5)nc4)CC3)C2=O)COC1=O [Example 53, 9-(2-(6-(1H-tetrazol-1-yl)pyridin-3-yl)ethyl)-4-(4-methyl-5-oxo-2,5-dihydrofuran-3-yl)-1-oxa-4,9-diazaspiro[5.5]undecan-5-one] | 13.1 nM
CC1=C(N2CCOC3(CCN(CCc4ccc5c(c4C)COC5=O)CC3)C2=O)COC1=O [Example 49, 9-(2-(4-methyl-1-oxo-1,3-dihydroisobenzofuran-5-yl)ethyl)-4-(4-methyl-5-oxo-2,5-dihydrofuran-3-yl)-1-oxa-4,9-diazaspiro[5.5]undecan-5-one] | 52.4 nM
CC1=C(N2CCOC3(CC4CCC(C3)N4C[C@H](O)c3ccc(-n4cnnn4)nc3)C2=O)COC1=O (stereo partly drawn) [Example 47, (1R,2′R,5S)-8-((R)-2-(6-(1H-tetrazol-1-yl)pyridin-3-yl)-2-hydroxyethyl)-4′-(4-methyl-5-oxo-2,5-dihydrofuran-3-yl)-8-azaspiro[bicyclo[3.2.1]octane-3,2′-morpholin]-3′-one] | 9.57 nM

More lines, now with the values ahead:

IC50 | Structure (SMILES)
415 nM | CC1COC2(CCN(C[C@H](O)c3ccc(-n4cnnn4)nc3)CC2)C(=O)N1C1=CC(=O)OC1 (single isomer, unassigned) [Example 13B]
224 nM | O=C1OCC(N2CCOC3(CCN(C[C@H](O)c4ccc(-n5cnnn5)nc4)CC3)C2)=C1C1CC1 [Example 28A, (R)-4-(9-(2-(6-(1H-tetrazol-1-yl)pyridin-3-yl)-2-hydroxyethyl)-1-oxa-4,9-diazaspiro[5.5]undecan-4-yl)-3-cyclopropylfuran-2(5H)-one]
114 nM | CC1=C(N2CCNC3(CCN(CC(O)c4cnc(-n5cnnn5)cn4)CC3)C2=O)COC1=O (single isomer, unassigned) [Example 3A, 9-(2-(5-(1H-tetrazol-1-yl)pyrazin-2-yl)-2-hydroxyethyl)-4-(4-methyl-5-oxo-2,5-dihydrofuran-3-yl)-1,4,9-triazaspiro[5.5]undecan-5-one]
63.1 nM | CC1=C(N2CCNC3(CCN(C[C@@H](O)c4ccc(-n5cnnn5)nc4)CC3)C2=O)COC1=O [Example 4B, (S)-9-(2-(6-(1H-tetrazol-1-yl)pyridin-3-yl)-2-hydroxyethyl)-4-(4-methyl-5-oxo-2,5-dihydrofuran-3-yl)-1,4,9-triazaspiro[5.5]undecan-5-one]
462 nM | CC1=C(N2CCOC3(CCN(CC(O)c4cnc(-n5cnnn5)cn4)CC3)C2)COC1=O (single isomer, unassigned) [Example 48A, 4-(9-(2-(5-(1H-tetrazol-1-yl)pyrazin-2-yl)-2-hydroxyethyl)-1-oxa-4,9-diazaspiro[5.5]undecan-4-yl)-3-methylfuran-2(5H)-one]
91.9 nM | COc1cc(-n2cnnn2)ccc1C(O)CN1CCC2(CC1)CN(C1=C(C)C(=O)OC1)CCO2 (single isomer, unassigned) [Example 33B, 4-(9-(2-hydroxy-2-(2-methoxy-4-(1H-tetrazol-1-yl)phenyl)ethyl)-1-oxa-4,9-diazaspiro[5.5]undecan-4-yl)-3-methylfuran-2(5H)-one]
155 nM | CC1=C(N2C(=O)C3(CCN(C[C@@H](O)c4ccc(-n5cnnn5)nc4)CC3)OCC2C)COC1=O (single isomer, unassigned) [Example 10A]
11.5 nM | O=C1OCC(N2CCOC3(CCN(C[C@H](O)c4ccc(-n5cnnn5)nc4)CC3)C2)=C1Cl [Example 24A]
317 nM | CC1=C(N2C(=O)C3(CCN(C[C@@H](O)c4ccc(-n5cnnn5)nc4)CC3)OCC2C)COC1=O (single isomer, unassigned) [Example 10C]
245 nM | CC1=C(N2CCOC3(CCN(CC(O)c4cnc(-n5cnnn5)cn4)CC3)C2)COC1=O (single isomer, unassigned) [Example 48B, 4-(9-(2-(5-(1H-tetrazol-1-yl)pyrazin-2-yl)-2-hydroxyethyl)-1-oxa-4,9-diazaspiro[5.5]undecan-4-yl)-3-methylfuran-2(5H)-one]
41.8 nM | CC1=C(N2CCN(C)C3(CCN(CC(O)c4ccc(-n5cnnn5)nc4C)CC3)C2=O)COC1=O (single isomer, unassigned) [Example 35A, 9-(2-hydroxy-2-(2-methyl-6-(1H-tetrazol-1-yl)pyridin-3-yl)ethyl)-1-methyl-4-(4-methyl-5-oxo-2,5-dihydrofuran-3-yl)-1,4,9-triazaspiro[5.5]undecan-5-one]
42.5 nM | CC1=C(N2CCNC3(CCN(CC(O)c4ccc(-n5cnnn5)cc4)CC3)C2=O)COC1=O (single isomer, unassigned) [Example 5A, 9-(2-(4-(1H-tetrazol-1-yl)phenyl)-2-hydroxyethyl)-4-(4-methyl-5-oxo-2,5-dihydrofuran-3-yl)-1,4,9-triazaspiro[5.5]undecan-5-one]
688 nM | CC1=C(N2CC(F)(F)OC3(CCN(C[C@@H](O)c4ccc(-n5cnnn5)nc4)CC3)C2)COC1=O [Example 7B, (S)-4-(9-(2-(6-(1H-tetrazol-1-yl)pyridin-3-yl)-2-hydroxyethyl)-2,2-difluoro-1-oxa-4,9-diazaspiro[5.5]undecan-4-yl)-3-methylfuran-2(5H)-one]
34.5 nM | O=C1OCC(N2CCOC3(CCN(C[C@@H](O)c4ccc(-n5cnnn5)nc4)CC3)C2)=C1Cl [Example 24B]
123 nM | CC1=C(N2CCOC3(CCN(CC(O)c4ccc(-n5cnnn5)cc4F)CC3)C2)COC1=O (single isomer, unassigned) [Example 32B, 4-(9-(2-(2-fluoro-4-(1H-tetrazol-1-yl)phenyl)-2-hydroxyethyl)-1-oxa-4,9-diazaspiro[5.5]undecan-4-yl)-3-methylfuran-2(5H)-one]
416 nM | CC1=C(N2CC(F)(F)OC3(CCN(C[C@H](O)c4ccc(-n5cnnn5)nc4)CC3)C2)COC1=O [Example 7A, (R)-4-(9-(2-(6-(1H-tetrazol-1-yl)pyridin-3-yl)-2-hydroxyethyl)-2,2-difluoro-1-oxa-4,9-diazaspiro[5.5]undecan-4-yl)-3-methylfuran-2(5H)-one]
